Data: ChEMBL document CHEMBL3425402, “Discovery of β-D-2'-deoxy-2'-α-fluoro-4'-α-cyano-5-aza-7,9-dideaza adenosine as a potent nucleoside inhibitor of respiratory syncytial virus with excellent selectivity over mitochondrial RNA and DNA polymerases” (Bioorg Med Chem Lett, 2015)

Assays:
[1] = Antiviral activity against RSV A2 infected in human Hep2 cells assessed as protection against virus-induced cytopathic effect after 4 days by Cell-Titer Glo assay; assay type: functional, cell-based; conditions: human respiratory syncytial virus, HEp-2, 96 h
[2] = Inhibition of RSV A2 RNA-dependent RNA polymerase expressed in human Hep2 cells using ATP, GTP, UTP, CTP and 1.5 uCi [alpha-32P] NTP as substrate assessed as reduction of total radiolabled transcript after 90 mins by agarose gel electrophoresis; parameters: species or system Human respiratory syncytial virus A2; conditions: hep-2
[3] = biological target: DNA-directed RNA polymerase, mitochondrial (Homo sapiens) (UniProt O00411); experiment: Inhibition of human mitochondrial RNA polymerase using 5'-32P-R12/D18 as RNA/DNA template assessed as single nucleotide incorporation rate at 500 uM after 0.17 to 30 mins by PAGE analysis
Chain of DNA-directed RNA polymerase, mitochondrial (Homo sapiens) (O00411 whole entry): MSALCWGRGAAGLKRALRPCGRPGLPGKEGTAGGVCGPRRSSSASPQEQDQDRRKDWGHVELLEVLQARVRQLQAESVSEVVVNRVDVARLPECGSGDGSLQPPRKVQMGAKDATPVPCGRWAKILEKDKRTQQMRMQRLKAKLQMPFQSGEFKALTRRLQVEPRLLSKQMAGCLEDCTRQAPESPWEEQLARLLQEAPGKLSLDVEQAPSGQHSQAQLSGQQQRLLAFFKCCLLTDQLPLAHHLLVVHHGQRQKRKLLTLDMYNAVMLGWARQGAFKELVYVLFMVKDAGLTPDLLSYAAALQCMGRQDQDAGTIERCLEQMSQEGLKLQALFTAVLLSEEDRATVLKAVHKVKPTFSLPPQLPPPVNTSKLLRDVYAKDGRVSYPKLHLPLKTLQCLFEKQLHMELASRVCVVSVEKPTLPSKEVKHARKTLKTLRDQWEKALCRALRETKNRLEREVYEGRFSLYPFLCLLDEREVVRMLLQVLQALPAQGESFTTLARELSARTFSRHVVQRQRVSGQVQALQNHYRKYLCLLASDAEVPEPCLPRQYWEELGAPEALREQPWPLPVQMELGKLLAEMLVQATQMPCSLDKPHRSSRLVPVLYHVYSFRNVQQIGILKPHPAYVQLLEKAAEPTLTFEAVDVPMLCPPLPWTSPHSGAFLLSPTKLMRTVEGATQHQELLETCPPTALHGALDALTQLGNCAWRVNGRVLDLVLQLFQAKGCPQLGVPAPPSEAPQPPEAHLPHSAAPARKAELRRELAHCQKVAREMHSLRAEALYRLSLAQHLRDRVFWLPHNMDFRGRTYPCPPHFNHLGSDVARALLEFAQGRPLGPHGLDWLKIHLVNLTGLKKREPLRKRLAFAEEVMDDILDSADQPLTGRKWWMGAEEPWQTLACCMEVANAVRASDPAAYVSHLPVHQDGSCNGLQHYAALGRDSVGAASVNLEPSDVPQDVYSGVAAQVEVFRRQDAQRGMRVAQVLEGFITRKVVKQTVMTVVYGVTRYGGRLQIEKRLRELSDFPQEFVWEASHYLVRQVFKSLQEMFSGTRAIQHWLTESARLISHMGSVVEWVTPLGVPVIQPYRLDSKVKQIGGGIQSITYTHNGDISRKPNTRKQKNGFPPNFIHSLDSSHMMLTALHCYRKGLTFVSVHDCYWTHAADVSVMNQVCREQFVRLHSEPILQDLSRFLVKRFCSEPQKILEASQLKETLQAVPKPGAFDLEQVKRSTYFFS

[4] = biological target: DNA polymerase subunit gamma-1/gamma-2 (Homo sapiens) (UniProt P54098+Q9UHN1); experiment: Inhibition of human mitochondrial DNA polymerase gamma large subunit/DNA polymerase gamma accessory subunit using 32P-D19/D36 as DNA primer/template assessed as single nucleotide incorporation rate at 100 uM after 5 to 90 mins by PAGE analysis relative to thymidine NTP; assay type: protein assay
Chain of DNA polymerase subunit gamma-1/gamma-2 (Homo sapiens) (P54098 whole entry, looked up): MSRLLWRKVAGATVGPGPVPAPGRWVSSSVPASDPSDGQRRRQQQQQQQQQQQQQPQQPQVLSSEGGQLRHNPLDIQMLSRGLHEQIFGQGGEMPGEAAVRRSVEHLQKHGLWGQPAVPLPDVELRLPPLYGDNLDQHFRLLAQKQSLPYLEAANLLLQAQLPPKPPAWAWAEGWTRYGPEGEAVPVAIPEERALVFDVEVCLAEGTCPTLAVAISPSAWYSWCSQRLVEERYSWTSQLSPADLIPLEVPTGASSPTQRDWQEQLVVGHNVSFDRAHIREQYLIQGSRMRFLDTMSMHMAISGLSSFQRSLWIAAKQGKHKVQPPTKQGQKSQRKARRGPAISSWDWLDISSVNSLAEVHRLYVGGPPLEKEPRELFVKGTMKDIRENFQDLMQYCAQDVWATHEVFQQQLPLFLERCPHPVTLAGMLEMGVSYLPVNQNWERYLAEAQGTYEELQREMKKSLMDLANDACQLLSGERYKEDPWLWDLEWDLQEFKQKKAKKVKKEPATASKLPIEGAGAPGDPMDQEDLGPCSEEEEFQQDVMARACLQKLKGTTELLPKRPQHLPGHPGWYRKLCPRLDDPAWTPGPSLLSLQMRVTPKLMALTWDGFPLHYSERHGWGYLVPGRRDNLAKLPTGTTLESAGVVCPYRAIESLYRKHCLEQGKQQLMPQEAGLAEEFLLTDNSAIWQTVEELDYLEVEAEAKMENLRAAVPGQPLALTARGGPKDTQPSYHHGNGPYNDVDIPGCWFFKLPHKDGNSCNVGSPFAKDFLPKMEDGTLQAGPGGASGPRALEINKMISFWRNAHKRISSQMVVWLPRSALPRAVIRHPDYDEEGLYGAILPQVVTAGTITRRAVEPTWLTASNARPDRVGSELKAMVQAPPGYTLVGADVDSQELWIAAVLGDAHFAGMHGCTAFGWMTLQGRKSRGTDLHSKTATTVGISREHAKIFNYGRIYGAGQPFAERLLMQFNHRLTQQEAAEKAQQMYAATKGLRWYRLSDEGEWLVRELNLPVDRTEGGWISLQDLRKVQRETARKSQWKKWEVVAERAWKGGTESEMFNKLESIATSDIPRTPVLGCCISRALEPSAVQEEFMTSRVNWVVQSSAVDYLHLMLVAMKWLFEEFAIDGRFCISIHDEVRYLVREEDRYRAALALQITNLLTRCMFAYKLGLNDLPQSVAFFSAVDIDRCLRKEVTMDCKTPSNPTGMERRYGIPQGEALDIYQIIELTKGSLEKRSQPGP
Chain of DNA polymerase subunit gamma-1/gamma-2 (Homo sapiens) (Q9UHN1 whole entry, looked up): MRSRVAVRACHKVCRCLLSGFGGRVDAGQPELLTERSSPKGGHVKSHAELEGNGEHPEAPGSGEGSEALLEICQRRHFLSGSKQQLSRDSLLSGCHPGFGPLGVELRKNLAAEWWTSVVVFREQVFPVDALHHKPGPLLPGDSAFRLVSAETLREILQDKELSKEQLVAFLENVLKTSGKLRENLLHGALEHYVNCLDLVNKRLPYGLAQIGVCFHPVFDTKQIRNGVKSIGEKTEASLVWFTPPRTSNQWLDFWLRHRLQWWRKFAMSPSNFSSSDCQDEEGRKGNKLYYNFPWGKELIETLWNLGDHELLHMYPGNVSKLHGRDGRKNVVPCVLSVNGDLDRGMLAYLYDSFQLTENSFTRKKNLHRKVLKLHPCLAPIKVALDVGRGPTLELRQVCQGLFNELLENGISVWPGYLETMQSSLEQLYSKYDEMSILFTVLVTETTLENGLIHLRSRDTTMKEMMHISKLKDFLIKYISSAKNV

[5] = Cytotoxicity against human MT4 cells assessed as cell viability after 5 days by Cell-Titer Glo assay; assay type: cell-based

SMILES	EC50 [1]	IC50 [2]	inhibition [3]	inhibition [4]	CC50 at 120 h [5]
CC[C@]1(CO)O[C@@H](c2ccc3c(N)ncnn23)[C@H](F)[C@@H]1O	41 µM	0.5 µM	0.1%	5.7%	> 114 µM
Nc1ccn([C@@H]2O[C@H](CO)[C@@H](O)[C@H]2F)c(=O)n1	> 200 µM	1.8 µM	20%	17%	3.8 µM
Nc1nc2c(ncn2[C@@H]2O[C@H](CO)[C@@H](O)[C@H]2F)c(=O)[nH]1	–	–	–	–	> 49 µM
C=C[C@]1(CO)O[C@@H](n2ccc(N)nc2=O)[C@H](F)[C@@H]1O	> 50 µM	0.6 µM	1.2%	4.9%	> 57 µM
O=c1ccn([C@@H]2O[C@H](CO)[C@@H](O)[C@H]2F)c(=O)[nH]1	> 100 µM	3.5 µM	37%	11%	–
Nc1ncnn2c([C@@H]3O[C@H](CO)[C@@H](O)[C@H]3F)ccc12	> 100 µM	0.6 µM	22%	2.5%	26 µM
CC[C@]1(CO)O[C@@H](n2ccc(N)nc2=O)[C@H](F)[C@@H]1O	8 µM	0.6 µM	0%	6%	> 57 µM
O=c1[nH]c(=O)n([C@@H]2O[C@H](CO)[C@@H](O)[C@@H]2F)cc1I	–	–	–	99%	–
C=C[C@]1(CO)O[C@@H](c2ccc3c(N)ncnn23)[C@H](F)[C@@H]1O	10 µM	0.6 µM	2.9%	10%	> 114 µM
N#C[C@]1(CO)O[C@@H](n2cnc3c(=O)[nH]c(N)nc32)[C@H](F)[C@@H]1O	10 µM	2.6 µM	0%	3%	24 µM
Nc1nc(O)c2ncn([C@@H]3O[C@H](CO)[C@@H](O)[C@H]3F)c2n1	> 200 µM	6.6 µM	21%	34%	–
[N-]=[N+]=N[C@]1(CO)O[C@@H](n2ccc(N)nc2=O)[C@H](F)[C@@H]1O	3.5 µM	0.3 µM	3%	7%	23 µM
Nc1ncnc2c1ncn2[C@@H]1O[C@H](CO)[C@@H](O)[C@H]1F [2'-BETA-FLUORO-2',3'-DEOXYADENOSINE]	> 50 µM	7.7 µM	24%	8%	–
Nc1ccn([C@@H]2O[C@@](CO)(CCl)[C@@H](O)[C@H]2F)c(=O)n1 [ALS-8112]	0.92 µM	1 µM	0%	41%	21 µM
C=C[C@]1(CO)O[C@@H](n2cnc3c(=O)[nH]c(N)nc32)[C@H](F)[C@@H]1O	17 µM	12 µM	1%	1%	46 µM
N#C[C@]1(CO)O[C@@H](c2ccc3c(N)ncnn23)[C@H](F)[C@@H]1O	2 µM	0.086 µM	< 0.1%	< 0.1%	> 114 µM
CC(C)C(=O)OC[C@@]1(N=[N+]=[N-])O[C@@H](n2ccc(N)nc2=O)[C@H](OC(=O)C(C)C)[C@@H]1OC(=O)C(C)C	–	–	112%	–	–
C#C[C@]1(CO)O[C@@H](n2cnc3c(=O)[nH]c(N)nc32)[C@H](F)[C@@H]1O	26 µM	1.8 µM	18%	5%	39 µM
